Here are results for 32 compounds from ChEMBL document CHEMBL4196009, “Novel vitexin-inspired scaffold against leukemia” (Eur J Med Chem, 2018).

The subject of experiment [1] is KOPN-8. Kind of experiment: Antiproliferative activity against human KOPN8 cells after 72 hrs by CelTiter-Glo assay. It is filed as functional, cell-based. The conditions noted are these: KOPN-8, 72 h.
Experiment [2] relates to SEM cells. Kind of experiment: Antiproliferative activity against human SEM cells after 72 hrs by CelTiter-Glo assay. Format: functional, cell-based.
Experiment [3] deals with BJ. The experiment is described as follows: Antiproliferative activity against human BJ cells after 72 hrs by CelTiter-Glo assay. It is filed as cell-based.
Experiment [4] concerns SUP-B15. The experiment is described as follows: Antiproliferative activity against human SUP-B15 cells after 72 hrs by CelTiter-Glo assay. The conditions noted are these: SUP-B15, 72 h. It is filed as functional, cell-based.
For experiment [5], the system named is UoC-B1. Kind of experiment: Antiproliferative activity against human UOCB1 cells after 72 hrs by CelTiter-Glo assay. It is filed as functional, cell-based. The conditions noted are these: UoC-B1, 72 h.
The subject of experiment [6] is HepG2. The experiment is described as follows: Antiproliferative activity against human HepG2 cells after 72 hrs by CelTiter-Glo assay. Format: functional, cell-based. The conditions noted are these: HepG2, 72 h.

Take `COC(=O)c1cc(=O)c2cc(NC(=O)Nc3ccc4c(c3)OCCO4)ccc2[nH]1`: the EC50 – broadly, the concentration needed to bring the measured effect to its halfway point – is more than 13.3 µM in experiment [1]; more than 13.3 µM in experiment [2]; more than 26.4 µM in experiment [3]; more than 26.4 µM in experiment [4]; more than 13.3 µM in experiment [5]; more than 13.3 µM in experiment [6].
For `C=C(C)c1cccc(C(C)(C)NC(=O)Nc2ccc3[nH]c(C(=O)OC)cc(=O)c3c2)c1`, the EC50 is more than 11.5 µM in experiment [1]; more than 11.5 µM in experiment [2]; more than 23 µM in experiment [3]; more than 23 µM in experiment [4]; more than 11.5 µM in experiment [5]; more than 11.5 µM in experiment [6].
Regarding `COC(=O)c1cc(=O)c2cc(NC(=O)Nc3cc(OC)c(OC)c(OC)c3)ccc2[nH]1`, the EC50 in experiment [1] was more than 43.3 µM; in experiment [2], more than 43.3 µM; in experiment [3] it was more than 86.2 µM; in experiment [4] it was more than 86.2 µM; in experiment [5] it was more than 43.3 µM; in experiment [6], more than 43.3 µM.
Consider `COC(=O)c1cc(=O)c2cc(NC(=O)Nc3ccc4c(c3)CCN4C)ccc2[nH]1`, for which the EC50 in experiment [1], in experiment [2], in experiment [3], in experiment [4], in experiment [5] and in experiment [6] was more than 86.2 µM in each case.
As to `COc1cc(OC)c2c(=O)cc(C(=O)Nc3ccc(Oc4cccnc4)cc3)[nH]c2c1`, the EC50 in experiment [1] is more than 32.2 µM; in experiment [2] it was more than 32.2 µM; in experiment [3], more than 32.2 µM; in experiment [4], more than 32.2 µM; in experiment [5], 27.7 µM; in experiment [6] it was more than 32.2 µM.
In the case of `O=c1c(-c2ccc(O)cc2)coc2cc(O)cc(O)c12` [GENISTEIN], the EC50 in experiment [1] is more than 86.2 µM; in experiment [2] it was 59.3 µM; in experiment [3], more than 86.2 µM; in experiment [4], more than 86.2 µM; in experiment [5] it was 35.7 µM; in experiment [6], 67.7 µM.
For the compound `CCOC(=O)[C@H](Cc1ccccc1)NC(=O)Nc1ccc2[nH]c(C(=O)OC)cc(=O)c2c1`, the EC50 was more than 13.9 µM in experiment [1]; more than 13.9 µM in experiment [2]; more than 27.6 µM in experiment [3]; 16.5 µM in experiment [4]; more than 13.9 µM in experiment [5]; more than 13.9 µM in experiment [6].
For `COC(=O)c1cc(=O)c2cc(NC(=O)N[C@@H](C)c3cccc(OC)c3)ccc2[nH]1`, the EC50 in experiment [1], in experiment [2], in experiment [3], in experiment [4], in experiment [5] and in experiment [6] was more than 25.3 µM each time.
For the compound `COC(=O)c1cc(=O)c2cc(NC(=O)Nc3ccc(C(F)(F)F)cc3[N+](=O)[O-])ccc2[nH]1`, the EC50 in experiment [1] was more than 26 µM; in experiment [2] it was 22.5 µM; in experiment [3], more than 51.7 µM; in experiment [4], more than 51.7 µM; in experiment [5], more than 26 µM; in experiment [6] it was more than 26 µM.
`COC(=O)c1cc(=O)c2cc(NC(=O)NCCc3cccs3)ccc2[nH]1`: the EC50 in experiment [1] is more than 9.81 µM; in experiment [2] it was more than 9.81 µM; in experiment [3], more than 19.5 µM; in experiment [4] it was more than 19.5 µM; in experiment [5], more than 9.81 µM; in experiment [6] it was more than 9.81 µM.
For the compound `COC(=O)c1cc(=O)c2cc(NC(=O)Nc3ccc(C(F)(F)F)cc3)ccc2[nH]1`, the EC50 was more than 6.35 µM in experiment [1]; more than 6.35 µM in experiment [2]; more than 12.6 µM in experiment [3]; 3.27 µM in experiment [4]; more than 6.35 µM in experiment [5]; more than 6.35 µM in experiment [6].
`COC(=O)c1cc(=O)c2cc(NC(=O)Nc3cc(F)cc(C(F)(F)F)c3)ccc2[nH]1`: the EC50 in experiment [1] was more than 20.2 µM; in experiment [2], more than 20.2 µM; in experiment [3] it was more than 40.2 µM; in experiment [4], more than 40.2 µM; in experiment [5], more than 20.2 µM; in experiment [6], more than 20.2 µM.
With `COC(=O)c1cc(=O)c2cc(NC(=O)Nc3cccc(C(C)=O)c3)ccc2[nH]1`, the EC50 in experiment [1] is more than 8.08 µM; in experiment [2], more than 8.08 µM; in experiment [3] it was more than 16.1 µM; in experiment [4], 11.4 µM; in experiment [5], more than 8.08 µM; in experiment [6], more than 8.08 µM.
As to `COc1cc(OC)c2c(=O)cc(C(=O)Nc3cccc(-c4nccs4)c3)[nH]c2c1`, the EC50 in experiment [1], in experiment [2], in experiment [3], in experiment [4], in experiment [5] and in experiment [6] was more than 54 µM in each case.
For the compound `COC(=O)c1cc(=O)c2cc(NC(=O)NCc3ccccc3)ccc2[nH]1`, the EC50 in experiment [1], in experiment [2], in experiment [3], in experiment [4], in experiment [5] and in experiment [6] was more than 19.5 µM each time.
As to `COC(=O)c1cc(=O)c2cc(N)ccc2[nH]1`, the EC50 in experiment [1] is more than 33.8 µM; in experiment [2] it was more than 33.8 µM; in experiment [3], more than 67.2 µM; in experiment [4] it was more than 67.2 µM; in experiment [5] it was more than 33.8 µM; in experiment [6], more than 33.8 µM.
`COc1ccc(-c2cc(=O)c3c(OC)cc(OC)cc3[nH]2)cc1`: the EC50 in experiment [1] is more than 31.2 µM; in experiment [2], more than 31.2 µM; in experiment [3], more than 62.1 µM; in experiment [4] it was more than 62.1 µM; in experiment [5], more than 31.2 µM; in experiment [6] it was more than 31.2 µM.
`COC(=O)c1cc(=O)c2c(OC)cc(OC)cc2[nH]1`: the EC50 is more than 34.5 µM in experiment [1]; more than 34.5 µM in experiment [2]; more than 34.5 µM in experiment [3]; 16.1 µM in experiment [4]; more than 34.5 µM in experiment [5]; more than 34.5 µM in experiment [6].
Regarding `COC(=O)c1cc(=O)c2cc(NC(=O)Nc3ccc(F)c(Cl)c3)ccc2[nH]1`, the EC50 in experiment [1] is more than 6.35 µM; in experiment [2], more than 6.35 µM; in experiment [3], more than 12.6 µM; in experiment [4], more than 12.6 µM; in experiment [5] it was more than 6.35 µM; in experiment [6], more than 6.35 µM.
On to `COc1ccc(Oc2ccc(C(F)(F)F)cc2NC(=O)c2cc(=O)c3c(OC)cc(OC)cc3[nH]2)cc1`, for which the EC50 is more than 67.2 µM in experiment [1]; more than 67.2 µM in experiment [2]; more than 67.2 µM in experiment [3]; more than 67.2 µM in experiment [4]; more than 67.2 µM in experiment [5]; 5.3 µM in experiment [6].
`COc1cc(OC)c2c(=O)cc(C(=O)Nc3cccc(-n4ccnc4)c3)[nH]c2c1`: the EC50 in experiment [1], in experiment [2], in experiment [3], in experiment [4], in experiment [5] and in experiment [6] was more than 16.4 µM each time.
With `COC(=O)c1cc(=O)c2cc([N+](=O)[O-])ccc2[nH]1`, the EC50 was more than 41.6 µM in experiment [1]; more than 41.6 µM in experiment [2]; more than 82.8 µM in experiment [3]; 76.5 µM in experiment [4]; more than 41.6 µM in experiment [5]; more than 41.6 µM in experiment [6].
With `COc1cc(OC)c2c(=O)cc(C(=O)Nc3ccc(N4CCN(C)CC4)cc3)[nH]c2c1`, the EC50 in experiment [1], in experiment [2], in experiment [3], in experiment [4], in experiment [5] and in experiment [6] was more than 19.8 µM throughout.
Take `C=CCNC(=O)Nc1ccc2c(c1)c(=O)cc(C(=O)OC)n2C(=O)NCC=C`: the EC50 in experiment [1] was more than 43.3 µM; in experiment [2], more than 43.3 µM; in experiment [3] it was 86.2 µM; in experiment [4], 86.2 µM; in experiment [5], more than 43.3 µM; in experiment [6], more than 43.3 µM.
Consider `COC(=O)c1cc(=O)c2cc(NC(=O)NC34CC5CC(CC(C5)C3)C4)ccc2[nH]1`, for which the concentration for a half-maximal effect (EC50) in experiment [1] is more than 16.2 µM; in experiment [2] it was more than 16.2 µM; in experiment [3] it was more than 32.2 µM; in experiment [4], 9.1 µM; in experiment [5], more than 16.2 µM; in experiment [6], more than 16.2 µM.
As to `COC(=O)c1cc(=O)c2cc(NC(=O)Nc3ccc(Cl)c(Cl)c3)ccc2[nH]1`, the EC50 is more than 6.35 µM in experiment [1]; more than 6.35 µM in experiment [2]; more than 12.6 µM in experiment [3]; 5.52 µM in experiment [4]; more than 6.35 µM in experiment [5]; more than 6.35 µM in experiment [6].
With `COc1cc(OC)c2c(=O)cc(C(=O)Nc3ccc(Oc4ccc(F)cc4)cc3)[nH]c2c1`, the EC50 in experiment [1], in experiment [2], in experiment [3], in experiment [4], in experiment [5] and in experiment [6] was more than 50 µM in each case.
`COc1ccc(-c2cc(=O)c3c(OC)cc(OC)cc3n2Cc2ccccc2)cc1`: the EC50 in experiment [1] was more than 17.3 µM; in experiment [2], more than 17.3 µM; in experiment [3], more than 34.5 µM; in experiment [4], more than 34.5 µM; in experiment [5], more than 17.3 µM; in experiment [6], more than 17.3 µM.
On to `COc1cc(OC)c2c(=O)cc(-c3ccc4c(c3)OCO4)[nH]c2c1`, for which the EC50 in experiment [1] is more than 27.7 µM; in experiment [2], more than 27.7 µM; in experiment [3], more than 55.2 µM; in experiment [4], 18.8 µM; in experiment [5], more than 27.7 µM; in experiment [6] it was more than 27.7 µM.
Consider `COC(=O)c1cc(=O)c2cc(NC(=O)NC3c4ccccc4-c4ccccc43)ccc2[nH]1`, for which the EC50 in experiment [1] is more than 12.1 µM; in experiment [2] it was more than 12.1 µM; in experiment [3] it was more than 24.1 µM; in experiment [4] it was more than 24.1 µM; in experiment [5] it was more than 12.1 µM; in experiment [6] it was more than 12.1 µM.
`COc1cc(OC)c2c(=O)cc(C(=O)Nc3ccc(-n4cccc4)cc3)[nH]c2c1`: the EC50 is more than 77 µM in experiment [1]; more than 77 µM in experiment [2]; more than 77 µM in experiment [3]; more than 77 µM in experiment [4]; 51.8 µM in experiment [5]; more than 77 µM in experiment [6].
For `COc1cc(OC)c2c(=O)cc(C(=O)Nc3cccc(N4CCCC4)c3)[nH]c2c1`, the EC50 in experiment [1], in experiment [2], in experiment [3], in experiment [4], in experiment [5] and in experiment [6] was more than 58.6 µM each time.
